US8524755B2 (priority 2009, dated 2013)

Columns and labels:
[1] = target: T1, human GABAA α1β3γ2 receptor (Homo sapiens, UniProt P14867+P18507+P28472); assay: GABAA Functional Assay, α1β3γ2, Xenopus oocytes; assay type: cell-based
T1 construct: expressed in transfected cells; host or cells: Xenopus laevis oocytes, cDNA injection

Adenosine A1 (h) = target: T2, Adenosine A1 (h) (Homo sapiens, UniProt P30542); assay: Binding A1 (h) (aa); conditions: read-out: % Inhibition of Control Specific Binding @ 10 μM
T2 construct: expressed in transfected cells; host or cells: CHO cells
T2 sequence (P30542 1-326): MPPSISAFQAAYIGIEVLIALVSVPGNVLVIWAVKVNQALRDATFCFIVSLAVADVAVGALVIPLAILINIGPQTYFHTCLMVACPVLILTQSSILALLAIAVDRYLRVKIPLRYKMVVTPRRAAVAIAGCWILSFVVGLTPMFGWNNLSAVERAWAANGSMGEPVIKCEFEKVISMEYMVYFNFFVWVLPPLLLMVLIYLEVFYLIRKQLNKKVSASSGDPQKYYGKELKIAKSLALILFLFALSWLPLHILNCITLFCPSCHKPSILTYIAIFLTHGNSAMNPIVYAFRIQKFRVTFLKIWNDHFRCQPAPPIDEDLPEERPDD
Protocol: (§1) Radioligand binding assay methods utilized to measure the activity of compounds of the invention will be familiar to those skilled in the art. In each assay case, the assay components such as, for example, the cell-type, ligand, reference compound and the like, will be familiar to practitioners of such an assay.
(§2) Analysis and Expression of Results: Compounds of the invention were tested in the biochemical assays and percent inhibition of specific binding was determined. The specific ligand binding to the receptors is defined as the difference between the total binding and the nonspecific binding determined in the presence of an excess of unlabelled ligand. The results are expressed as a percent inhibition of control specific binding (100−((measured specific binding/control specific binding)×100)) obtained in the presence of test compounds.

Neurokinin NK3 (h) = target: T3, Neurokinin NK3 (h) (Homo sapiens, UniProt P29371); assay: Binding NK3 (h) (aa); conditions: read-out: % Inhibition of Control Specific Binding @ 10 μM
T3 construct: expressed in transfected cells; host or cells: CHO cells
T3 sequence (P29371 1-465): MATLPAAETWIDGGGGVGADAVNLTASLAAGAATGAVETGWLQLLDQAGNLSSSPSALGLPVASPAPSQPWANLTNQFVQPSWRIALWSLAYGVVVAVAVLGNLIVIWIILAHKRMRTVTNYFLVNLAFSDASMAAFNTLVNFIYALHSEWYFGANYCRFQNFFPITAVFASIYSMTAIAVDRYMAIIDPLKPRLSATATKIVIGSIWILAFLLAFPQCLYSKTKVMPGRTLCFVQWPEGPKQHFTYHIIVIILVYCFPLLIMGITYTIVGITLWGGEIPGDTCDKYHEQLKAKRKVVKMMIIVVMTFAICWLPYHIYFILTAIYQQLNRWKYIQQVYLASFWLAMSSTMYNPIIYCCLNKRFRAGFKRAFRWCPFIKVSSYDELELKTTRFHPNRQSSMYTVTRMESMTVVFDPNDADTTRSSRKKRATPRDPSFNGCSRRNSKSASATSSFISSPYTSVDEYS
Protocol: as §1, §2

Na^+ channel (site 2) = assay: Binding Na+ channel (site 2) (aa); set-up: species or system rat
Protocol: as §1, §2

Estrogen ER (ns) (h) = target: T4, Estrogen ER (ns) (h) (Homo sapiens, UniProt P03372); assay: Binding ER (ns) (h) (ag); conditions: read-out: % Inhibition of Control Specific Binding @ 10 μM
T4 construct: MCF-7 cells (cytosol); endogenous in cells; host or cells: MCF-7 cells (cytosol)
T4 sequence (P03372 whole entry): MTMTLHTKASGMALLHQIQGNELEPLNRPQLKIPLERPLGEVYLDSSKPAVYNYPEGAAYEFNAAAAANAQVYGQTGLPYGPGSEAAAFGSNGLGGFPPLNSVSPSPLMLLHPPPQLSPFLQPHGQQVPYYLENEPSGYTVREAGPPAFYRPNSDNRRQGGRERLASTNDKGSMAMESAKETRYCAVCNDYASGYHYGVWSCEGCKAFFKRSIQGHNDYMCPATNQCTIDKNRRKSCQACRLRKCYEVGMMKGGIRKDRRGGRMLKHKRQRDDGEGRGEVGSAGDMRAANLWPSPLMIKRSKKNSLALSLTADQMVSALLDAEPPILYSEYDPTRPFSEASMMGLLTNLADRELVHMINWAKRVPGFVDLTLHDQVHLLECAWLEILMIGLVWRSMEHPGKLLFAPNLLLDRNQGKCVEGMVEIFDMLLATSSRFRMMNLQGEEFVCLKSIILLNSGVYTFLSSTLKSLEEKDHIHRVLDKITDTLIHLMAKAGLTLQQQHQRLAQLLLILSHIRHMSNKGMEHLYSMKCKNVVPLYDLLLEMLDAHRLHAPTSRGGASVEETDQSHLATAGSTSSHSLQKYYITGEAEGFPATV
Protocol: as §1, §2

T1 sequence (P14867 28-456): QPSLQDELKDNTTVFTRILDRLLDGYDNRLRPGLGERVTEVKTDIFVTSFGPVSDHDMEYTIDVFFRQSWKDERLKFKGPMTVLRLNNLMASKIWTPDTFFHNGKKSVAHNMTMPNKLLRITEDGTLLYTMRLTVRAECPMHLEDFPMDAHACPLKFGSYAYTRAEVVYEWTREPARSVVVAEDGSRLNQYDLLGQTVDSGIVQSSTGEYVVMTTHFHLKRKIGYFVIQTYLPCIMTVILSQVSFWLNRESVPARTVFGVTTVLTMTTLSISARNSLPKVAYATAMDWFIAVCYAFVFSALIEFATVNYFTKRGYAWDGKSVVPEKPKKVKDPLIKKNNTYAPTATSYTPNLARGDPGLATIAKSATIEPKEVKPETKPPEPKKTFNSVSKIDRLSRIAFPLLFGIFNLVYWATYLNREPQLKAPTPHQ
T1 sequence (P28472 26-473): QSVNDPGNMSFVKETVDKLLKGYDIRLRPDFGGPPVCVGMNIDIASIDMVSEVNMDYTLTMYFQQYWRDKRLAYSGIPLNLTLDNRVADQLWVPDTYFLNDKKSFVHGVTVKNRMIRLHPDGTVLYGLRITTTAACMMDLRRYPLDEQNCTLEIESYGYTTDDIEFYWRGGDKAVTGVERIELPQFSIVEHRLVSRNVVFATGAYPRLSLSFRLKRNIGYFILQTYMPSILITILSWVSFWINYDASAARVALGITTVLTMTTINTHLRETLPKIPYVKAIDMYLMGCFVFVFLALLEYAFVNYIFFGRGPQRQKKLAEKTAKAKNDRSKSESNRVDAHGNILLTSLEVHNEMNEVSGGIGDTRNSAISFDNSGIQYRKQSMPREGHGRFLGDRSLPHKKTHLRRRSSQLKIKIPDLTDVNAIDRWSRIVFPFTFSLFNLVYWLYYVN
T1 sequence (P18507 40-475): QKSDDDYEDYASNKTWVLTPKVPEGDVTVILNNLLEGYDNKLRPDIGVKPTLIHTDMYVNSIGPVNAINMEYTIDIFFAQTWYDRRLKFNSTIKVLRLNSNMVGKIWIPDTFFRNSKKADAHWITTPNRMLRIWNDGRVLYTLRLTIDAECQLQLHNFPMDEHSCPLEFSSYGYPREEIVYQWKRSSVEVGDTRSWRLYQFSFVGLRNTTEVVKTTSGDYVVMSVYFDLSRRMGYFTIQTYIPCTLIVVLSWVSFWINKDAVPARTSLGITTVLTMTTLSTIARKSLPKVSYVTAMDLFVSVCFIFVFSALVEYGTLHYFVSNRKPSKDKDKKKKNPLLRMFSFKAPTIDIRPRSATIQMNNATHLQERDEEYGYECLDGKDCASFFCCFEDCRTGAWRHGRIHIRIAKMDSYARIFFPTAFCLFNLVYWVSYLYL

Structure (SMILES) | agonist activity at α1β3γ2 GABAA receptor (inward currents) ([1]; single exposure 30 sec) | inhibition at 10 µM (Adenosine A1 (h)) | inhibition at 10 µM (Neurokinin NK3 (h)) | % Inhibition of Control Specific Binding @ 10 μM (Na^+ channel (site 2)) | inhibition at 10 µM (Estrogen ER (ns) (h)) | IC50 ([1]; antagonist protocol, Xenopus oocytes, read-out: α1β3γ2 receptor derived IC50)
CNC(=O)c1ccc(N2C(=O)N(c3ccc(C#N)c(C(F)(F)F)c3)C(=O)C2(C)C)cc1F [(MIV), 4-(3-(4-cyano-3-(trifluoromethyl)phenyl)-5,5-dimethyl-2,4-dioxoimidazolidin-1-yl)-2-fluoro-N-methylbenzamide] | did not evoke any detectable inward currents | 6% | -7% | 5% | -11% | 
CC1(C)C(=O)N(c2ccc(C#N)c(C(F)(F)F)c2)C(=S)N1c1ccc(C(=O)O)c(F)c1 [(MI), 4-(3-(4-cyano-3-(trifluoromethyl)phenyl)-5,5-dimethyl-4-oxo-2-thioxoimidazolidin-1-yl)-2-fluorobenzoic acid] |  | 10% | -11% | −5% | -8% | 68.3 ± 6 µM
CC1(C)C(=O)N(c2ccc(C#N)c(C(F)(F)F)c2)C(=O)N1c1ccc(C(N)=O)c(F)c1 [(MIII), 4-(3-(4-cyano-3-(trifluoromethyl)phenyl)-5,5-dimethyl-2,4-dioxoimidazolidin-1-yl)-2-fluorobenzamide] |  | 2% | -2% | 1% | -2% | 
CC1(C)C(=O)N(c2ccc(C#N)c(C(F)(F)F)c2)C(=S)N1c1ccc(C(N)=O)c(F)c1 [(MII), 4-(3-(4-Cyano-3-(trifluoromethyl)phenyl)-5,5-dimethyl-4-oxo-2-thioxoimidazolidin-1-yl)-2-fluorobenzamide] |  | 9% | 3% | 13% | 3% | 
